Experimental data: publication PMC10970924 (Life, 2024)
Where two headings read alike, the source gives them in different places.

Tests used:
[1] = tested on: porcine neuronal tubulin; assay: Tubulin polymerization assay (Cytoskeleton kit); format: biochemical; settings: effector 10 µM; for Maximum Initial Rate of Polymerization V Max: tubulin 3 mg/mL, 37 °C
Experimental: To assess the effect of the test compounds on tubulin polymerization, a test kit from Cytoskeleton was used. The plate was pre-warmed to 37 °C for 20 min before starting the assay. Then, 10 µL of the compound of interest, at a 10-fold concentration in an assay buffer, was pipetted into the plate. For comparison, paclitaxel, a polymerization enhancer, and vinblastine, a tubulin polymerization inhibitor, were used. Both effectors were used at a concentration of 10 µM. The assay buffer served as a control. The plate was then incubated at 37 °C for 2 min, after which 100 µL of the diluted tubulin solution (containing 3 mg/mL of tubulin in 80 mM PIPES pH 6.9, 2 mM MgCl2, 0.5 mM EGTA, 1 mM GTP, and 7% glycerol) was added. The plate was then immediately placed in the plate reader. Absorbance was measured at 340 nm every minute for 61 readings on a Varioskan LUX (Thermo Scientific, Waltham, MA, USA) plate reader.

[2] = tested on: chicken erythrocyte genomic DNA; assay: Spectrophotometry of complexation with genomic DNA
Experimental: Chicken erythrocyte genomic DNA (Reanal, Budapest, Hungary) solution was prepared by dissolving 6 mg of DNA in 3 mL of Tris-EDTA (TE) buffer and allowed to stay for 2 days at a temperature of +2 °C until clear. The concentration of the initial DNA solution was measured using a nanodrop spectrophotometer (DeNovix, Wilmington, DE, USA). A series of DNA concentrations were prepared in TE buffer (60, 30, 20, 15 μg/mL). […] As a control, an equivalent amount of TE buffer in place of the genomic DNA was added to the samples. […] The results were then computed and statistically analyzed using GraphPad Prism software 8.0.1.

[3] = tested on: HCT-116 and MCF-7 cells; assay: Confocal microscopy of intracellular localization; format: cell-based, human; settings: DOX-1 and DOX-2 5 μM, 24 h; DOX 50 μM, 2 h
Experimental: A total of 24 h later, the studied compounds DOX-1 and DOX-2 at a concentration of 5 µM were added. Following another 24 h incubation period, Hoechst 33342 (Roche) was added, reaching a final concentration of 1.5 µg/mL. After 15 min, the dye-containing media was removed, and DBBS was added. The plate was subsequently analyzed using confocal microscopy (Zeiss LSM800, Jena, Germany).

[4] = tested on: PC-3; assay: MTS cytotoxicity assay; settings: for IC50: Homo sapiens; for Selectivity index IC50 HSF/IC50 PC-3: MTS assay, from the mean IC50 value for HSF cells
From the text: (§1) The study utilized human cell lines including PC-3 (human prostate adenocarcinoma), HSF (primary human skin fibroblasts), MDA-MB-231 (estrogen-negative breast adenocarcinoma), MCF-7 (estrogen-positive breast adenocarcinoma), MSC (multipotent stem cells derived from adipose tissue), SF-539 (brain gliosarcoma), SNB-19 (glioblastoma), A-498 (kidney carcinoma), M-14 (human melanoma), NCI-H322-M (primary bronchioalveolar carcinoma), HCT-15 (colon adenocarcinoma), and HCT-116 (colorectal intestinal carcinoma). We also used immortalized C2C12 mouse myoblasts (ATCC—CRL-1772). Cancer cell lines were obtained from the ATCC collection and generously provided by the Fox Chase Cancer Center (Philadelphia, USA). Conditionally normal cells, including skin fibroblasts and multipotent stem cells, were isolated by our group from postoperative materials (skin and subcutaneous fat) obtained from a conditionally healthy donor. Reagents and consumables for cell culture work were purchased from PanEco (Russia).
(§2) The cytotoxicity of the compounds under study was assessed using MTS assay on cell cultures. Cells were seeded into 96-well plates at a concentration of 10,000–20,000 cells/mL. After 24 h, gradient concentrations of the compounds were added to the culture medium and the plates were incubated for 72 h. Subsequently, the culture medium was replaced with MTS reagents (Sigma-Aldrich, Burlington, MA, USA) (MTS:PMS (0.18:0.0092 mg/mL)) and dissolved in phenol-free RPMI 1640 medium. After 2 h of incubation, the resulting water-soluble formazan was measured using the TECAN Infinite M200 Pro microplate reader at wavelengths of 555/750 nm. As a control, equivalent volumes of the solvents in which each compound was dissolved (dH2O/DMSO) were used. To calculate the percentage of viable cells relative to the control, which was considered 100%, dose-response curves were plotted against the logarithm of the compound concentration. The concentration of the compound at which cell growth is inhibited by 50% relative to the control was taken as the inhibitory concentration IC50 and calculated using Origin Pro software 8.0.1. The study was conducted in triplicates and in three independent repetitions.

[5] = tested on: SF-539; assay: MTS cytotoxicity assay; settings: Homo sapiens, SF-539, 72 h, read-out: Cytotoxic concentration IC50, SF-539
From the text: as §1, §2

[6] = tested on: MCF-7; assay: MTS cytotoxicity assay; settings: for IC50: Homo sapiens; for Selectivity index IC50 HSF/IC50 MCF-7: from the mean IC50 value for HSF cells
From the text: as §1, §2

[7] = tested on: HCT-15; assay: MTS cytotoxicity assay; settings: Homo sapiens, HCT-15, 72 h, read-out: Cytotoxic concentration IC50, HCT-15
From the text: as §1, §2

[8] = tested on: A-498; assay: MTS cytotoxicity assay; settings: Homo sapiens, A498, 72 h, read-out: Cytotoxic concentration IC50, A-498
From the text: as §1, §2

[9] = tested on: C2C12 (immortalized mouse myoblasts); assay: MTS cytotoxicity assay; settings: for Inhibition of C2C12 cell proliferation: MTS assay, sufficiently high concentrations
From the text: as §1, §2

[10] = tested on: HCT-116; assay: MTS cytotoxicity assay; settings: for IC50: Homo sapiens; for Times reduced cytotoxicity compared to doxorubicin, HCT-116 / Selectivity index IC50 HSF/IC50 HCT-116: MTS assay; for Selectivity index IC50 HSF/IC50 HCT-116: from the mean IC50 value for HSF cells; for IC25, HCT-116 / IC75, HCT-116: test concentration selected based on MTS data
From the text: as §1, §2

[11] = tested on: MDA-MB-231; assay: MTS cytotoxicity assay; settings: Homo sapiens, MDA-MB-231, 72 h, read-out: Cytotoxic concentration IC50, MDA-MB-231
From the text: as §1, §2

[12] = tested on: NCI-H322M; assay: MTS cytotoxicity assay; settings: Homo sapiens, 72 h, read-out: Cytotoxic concentration IC50, NCI-H322M
From the text: as §1, §2

[13] = MTS cytotoxicity assay
From the text: as §1, §2

[14] = tested on: M14; assay: MTS cytotoxicity assay; settings: Homo sapiens, M14, 72 h, read-out: Cytotoxic concentration IC50, M14
From the text: as §1, §2

[15] = tested on: SNB-19; assay: MTS cytotoxicity assay; settings: Homo sapiens, SNB-19, 72 h, read-out: Cytotoxic concentration IC50, SNB-19
From the text: as §1, §2

[16] = tested on: genomic DNA from chicken erythrocytes; assay: Agarose gel electrophoresis of DNA compositions; format: binding; settings: DNA 30 μg/mL; for Interaction with DNA (in words): 11.2 to 180 μM
Experimental: The mixtures were then incubated for 30 min. To visualize nucleic acids, the intercalating dye SYBR Green was added at a ratio of 1:10 to the final volume, and the mixtures were incubated in the dark for an additional 15 min. […] The electrolyte used was TAE buffer (pH 8.0).

[17] = PC-3, 72 h, read-out: Cytotoxic concentration IC50, PC-3
[18] = MCF7, 72 h, read-out: Cytotoxic concentration IC50, MCF-7
[19] = HCT-116, 72 h, read-out: Cytotoxic concentration IC50, HCT-116
[20] = HCT-116, read-out: IC50, HCT-116
[21] = test concentration selected based on MTS data

| Compound | Impact on tubulin polymerization (in words) [1] | Maximum Initial Rate of Polymerization V Max [1] [mOD/Min] | Changes in the optical spectrum on interaction with genomic DNA (in words) [2] | Shift of the Absorption Maximum Relative to Control ([2]; DNA concentration 15 µg/mL) [nm] | Shift of the Absorption Maximum Relative to Control ([2]; DNA concentration 20 µg/mL) [nm] | Shift of the Absorption Maximum Relative to Control ([2]; DNA concentration 30 µg/mL) [nm] | Shift of the Absorption Maximum Relative to Control ([2]; DNA concentration 60 µg/mL) [nm] | Penetration into the cell nuclei (in words) [3] | IC50 [4, 17] [nM] | IC50 ([4]; PC-3, read-out: IC50, PC-3) [nM] | Selectivity index IC50 HSF/IC50 PC-3 [4] | IC50 [5] [nM] | IC50 [6, 18] [nM] | IC50 [7] [nM] | IC50 [8] [nM] | IC50 [10, 19] [nM] | IC50 [11] [nM] | IC50 [12] [nM] | IC50 [14] [nM] | IC50 [15] [nM] | further results |
| --- | --- | --- | --- | --- | --- | --- | --- | --- | --- | --- | --- | --- | --- | --- | --- | --- | --- | --- | --- | --- | --- |
| COc1cccc2c1C(=O)c1c(O)c3c(c(O)c1C2=O)CC(O)(C(=O)CO)CC3OC1CC(NC(=O)c2cnc(C)c3c2COC(C)(C)O3)C(O)C(C)O1 (stereo not shown) [DOX-1, N-(3-hydroxy-2-methyl-6-((3,5,12-trihydroxy-3-(2-hydroxyacetyl)-10-methoxy-6,11-dioxo-1,2,3,4,6,11-hexahydrotetracen-1-yl)oxy)tetrahydro-2H-pyran-4-yl)-2,2,8-trimethyl-4H-[1,3]dioxino[4,5-c]pyridine-5-carboxamide] | no statistically significant impact | 5.5 | no significant changes | 2 | 1 | 4 | 2 | do not penetrate the cell nuclei | 5410 ± 880 | 6100 | 1.12 ± 0.24 | 2060 ± 180 | 1880 ± 480 | > 100000 | 4460 ± 3190 | 4630 ± 550 | 4050 ± 960 | 7200 ± 4760 | 4290 ± 1560 | 5080 ± 3400 | IC25, PC-3 ([4]; concentration and corresponding IC used in the Comet assay): 3 µM (IC25); Times less potent than unmodified doxorubicin, MCF-7 ([6]; MTS assay): 20.9; Selectivity index IC50 HSF/IC50 MCF-7 ([6]; MTS assay): 3.32 ± 0.87; Inhibition of C2C12 cell proliferation [9]: ≥ 95%; IC50 [10, 20]: 4000 nM; Times reduced cytotoxicity compared to doxorubicin, HCT-116 [10]: 4.2; Selectivity index IC50 HSF/IC50 HCT-116 [10]: 1.28 ± 0.18; IC25, HCT-116 [10]: 1700 nM; IC75, HCT-116 [10]: 9000 nM; IC50 at 72 h ([13]; mouse): 230 ± 160 nM; Interaction with DNA (in words) [16]: do not interact with DNA |
| COc1cccc2c1C(=O)c1c(O)c3c(c(O)c1C2=O)C[C@@](O)(C(=O)CO)C[C@@H]3O[C@H]1C[C@H](N)[C@H](O)[C@H](C)O1 [DOX, Doxorubicin, reference compound] | no statistically significant impact | 5.5 | significant changes | – | – | – | – | efficiently permeates and accumulates in the cell nuclei | 1050 ± 620 | 1100 | – | 530 ± 350 | 90 ± 50 | 460 ± 160 | 350 ± 60 | 1100 ± 640 | 730 ± 250 | 2460 ± 1180 | 160 ± 20 | 100 ± 40 | IC50 ([6]; MCF7, read-out: IC50, MCF-7): 50 nM; IC10, MCF-7 [6, 21]: 10 nM; IC25, MCF-7 [6, 21]: 20 nM; IC70, MCF-7 [6, 21]: 200 nM; Inhibition of C2C12 cell proliferation [9]: ≥ 95%; IC50 [10, 20]: 1000 nM; IC25, HCT-116 [10]: 250 nM; IC75, HCT-116 [10]: 2500 nM; IC50 at 72 h ([13]; human, HSF primary skin fibroblasts): 1120 ± 660 nM; IC50 at 72 h ([13]; mouse, C2C12 immortalized myoblasts): 45 ± 4 nM; Concentration sufficient to completely prevent migration of DNA ([16]; agarose gel): 15 µM |
| COc1cccc2c1C(=O)c1c(O)c3c(c(O)c1C2=O)CC(O)(C(=O)CO)CC3OC1CC(NC(=O)/C=C/c2cnc(C)c3c2COC(C)(C)O3)C(O)C(C)O1 (stereo not shown) [DOX-2, (E)-N-(3-hydroxy-2-methyl-6-((3,5,12-trihydroxy-3-(2-hydroxyacetyl)-10-methoxy-6,11-dioxo-1,2,3,4,6,11-hexahydrotetracen-1-yl)oxy)tetrahydro-2H-pyran-4-yl)-3-(2,2,8-trimethyl-4H-[1,3]dioxino[4,5-c]pyridin-5-yl)acrylamide] | no statistically significant impact | 6.8 | no significant changes | 0 | 0 | 0 | 1 | do not penetrate the cell nuclei | 1970 ± 310 | – | >100 | 1740 ± 110 | 770 ± 150 | > 200000 | 41700 ± 7420 | 1430 ± 290 | 1580 ± 1030 | > 200000 | 2610 ± 240 | 870 ± 100 | Selectivity index for MCF-7, times greater than that of doxorubicin ([6]; MTS assay): 15; Times less potent than unmodified doxorubicin, MCF-7 ([6]; MTS assay): 8.5; Selectivity index IC50 HSF/IC50 MCF-7 ([6]; MTS assay): >260; inhibition at 200 µM ([9]; Mus musculus, C2C12, read-out: Inhibition of C2C12): ≤ 60%; Times reduced cytotoxicity compared to doxorubicin, HCT-116 [10]: 1.3; Selectivity index IC50 HSF/IC50 HCT-116 [10]: >140; IC50 at 72 h ([13]; human): > 200000 nM; IC50 at 72 h ([13]; mouse): 2800 ± 1710 nM; Interaction with DNA (in words) [16]: do not interact with DNA |
